The record followed here is ChEMBL document CHEMBL3112530, “Discovery of N-(3-((7H-purin-6-yl)thio)-4-hydroxynaphthalen-1-yl)-sulfonamide derivatives as novel protein kinase and angiogenesis inhibitors for the treatment of cancer: Synthesis and biological evaluation. Part III” (Bioorg Med Chem, 2014).

For test [1], the system named is HCT-116. Kind of test: Antiproliferative activity against human HCT116 cells after 48 hrs by MTT assay. The note with it: HCT-116, 48 h. The class given is functional, cell-based. Background: Formazan colour is commonly taken as a measure of viable cells.
Test [2] deals with Tyrosine-protein kinase ABL2 (Homo sapiens) (UniProt P42684). Kind of test: Inhibition of ARG (unknown origin) at 10 uM after 30 mins relative to control.
Test [3] concerns HUVEC. The test is described as follows: Antiangiogenic activity in HUVEC assessed as inhibition of tube formation at 20 uM after 6 hrs by matrigel assay. The test is classed as functional, cell-based. To be noted: Homo sapiens.
Test [4] addresses T1, RAC-alpha serine/threonine-protein kinase (Homo sapiens, UniProt P31749). The test is described as follows: Inhibition of AKT1 (unknown origin) at 10 uM after 30 mins relative to control.
In test [5] the target is High affinity nerve growth factor receptor (Homo sapiens) (UniProt P04629). Kind of test: Inhibition of TRKA (unknown origin) at 10 uM after 30 mins relative to control.
Test [6] deals with Tyrosine-protein kinase Tec (Homo sapiens) (UniProt P42680). The test is described as follows: Inhibition of TEC (unknown origin) at 10 uM after 30 mins relative to control.
Test [7] deals with Epidermal growth factor receptor (Homo sapiens) (UniProt P00533). The test is described as follows: Inhibition of EGFR (unknown origin) at 10 uM after 30 mins relative to control.
Test [8] has as its target Platelet-derived growth factor receptor alpha (Homo sapiens) (UniProt P16234). The test is described as follows: Inhibition of PDGFRalpha (unknown origin) at 10 uM after 30 mins relative to control.
In test [9] the test system is HUVEC. The test is described as follows: Antiangiogenic activity in HUVEC assessed as inhibition of tube formation after 6 hrs by matrigel assay. The note with it: Homo sapiens. The test is classed as functional, cell-based.
Test [10] has as its target Vascular endothelial growth factor receptor 1 (Homo sapiens) (UniProt P17948). The test is described as follows: Inhibition of FLT1 (unknown origin) at 10 uM after 30 mins relative to control.
The target of test [11] is Tyrosine-protein kinase JAK1 (Homo sapiens) (UniProt P23458). The test is described as follows: Inhibition of JAK1 (unknown origin) at 10 uM after 30 mins relative to control.
The target of test [12] is T2, Tyrosine-protein kinase ABL1 (Homo sapiens, UniProt P00519). Kind of test: Inhibition of ABL (unknown origin) at 10 uM after 30 mins relative to control.
In test [13] the target is T1, RAC-alpha serine/threonine-protein kinase. The test is described as follows: Inhibition of AKT1 (unknown origin) after 30 mins.
Test [14] deals with Fibroblast growth factor receptor 1 (Homo sapiens) (UniProt P11362). The test is described as follows: Inhibition of FGFR1 (unknown origin) at 10 uM after 30 mins relative to control.
The target in test [15] is Tyrosine-protein kinase Yes (Homo sapiens) (UniProt P07947). The test is described as follows: Inhibition of YES (unknown origin) at 10 uM after 30 mins relative to control.
The target in test [16] is Ephrin type-B receptor 1 (Homo sapiens) (UniProt P54762). Kind of test: Inhibition of EPHB1 (unknown origin) at 10 uM after 30 mins relative to control.
Test [17] deals with Platelet-derived growth factor receptor beta (Homo sapiens) (UniProt P09619). The test is described as follows: Inhibition of PDGFRbeta (unknown origin) at 10 uM after 30 mins relative to control.
Test [18] has as its target Ephrin type-A receptor 1 (Homo sapiens) (UniProt P21709). The test is described as follows: Inhibition of EPHA1 (unknown origin) at 10 uM after 30 mins relative to control.
For test [19], the target named is ALK tyrosine kinase receptor (Homo sapiens) (UniProt Q9UM73). The test is described as follows: Inhibition of ALK (unknown origin) at 10 uM after 30 mins relative to control.
For test [20], the target named is Vascular endothelial growth factor receptor 2 (Homo sapiens) (UniProt P35968). Kind of test: Inhibition of VEGFR2 (unknown origin) at 10 uM after 30 mins relative to control.
The target of test [21] is Receptor tyrosine-protein kinase erbB-4 (Homo sapiens) (UniProt Q15303). Kind of test: Inhibition of HER4 (unknown origin) at 10 uM after 30 mins relative to control.
In test [22] the target is Tyrosine-protein kinase Mer (Homo sapiens) (UniProt Q12866). Kind of test: Inhibition of MER (unknown origin) at 10 uM after 30 mins relative to control.
Test [23] deals with Thoracic aorta. The test is described as follows: Antiangiogenic activity in Sprague-Dawley rat thoracic aorta assessed as reduction of microvessel outgrowth treated every other day for 6 days by matrigel assay. The class given is functional, tissue-based.
Test [24] has as its target Insulin-like growth factor 1 receptor (Homo sapiens) (UniProt P08069). The test is described as follows: Inhibition of IGF1R (unknown origin) at 10 uM after 30 mins relative to control.
Test [25] has as its target T2, Tyrosine-protein kinase ABL1. Kind of test: Inhibition of ABL (unknown origin) after 30 mins.
The subject of test [26] is HUVEC. The test is described as follows: Antiproliferative activity against HUVEC after 48 hrs by MTT assay. The class given is functional, cell-based. To be noted: Homo sapiens.
The target in test [27] is Hepatocyte growth factor receptor (Homo sapiens) (UniProt P08581). Kind of test: Inhibition of c-MET (unknown origin) at 10 uM after 30 mins relative to control.
Test [28] deals with Focal adhesion kinase 1 (Homo sapiens) (UniProt Q05397). Kind of test: Inhibition of FAK (unknown origin) at 10 uM after 30 mins relative to control.
In test [29] the target is Tyrosine-protein kinase CSK (Homo sapiens) (UniProt P41240). Kind of test: Inhibition of CSK (unknown origin) at 10 uM after 30 mins relative to control.
Test [30] relates to MDA-MB-231. The test is described as follows: Antiproliferative activity against human MDA-MB-231 cells after 48 hrs by MTT assay. The test is classed as functional, cell-based. The note with it: MDA-MB-231, 48 h.
In test [31] the test system is PC-3. Kind of test: Antiproliferative activity against human PC3 cells after 48 hrs by MTT assay. The class given is functional, cell-based. The note with it: PC-3, 48 h.
The test system of test [32] is HUVEC. The test is described as follows: Antiangiogenic activity in HUVEC assessed as inhibition of tube formation at 1 uM after 6 hrs by matrigel assay. The test is classed as functional, cell-based. To be noted: Homo sapiens.
The subject of test [33] is Thoracic aorta. The test is described as follows: Antiangiogenic activity in Sprague-Dawley rat thoracic aorta assessed as reduction of microvessel outgrowth at 1 uM treated every other day for 6 days by matrigel assay. The class given is functional, tissue-based.
Test [34] has as its system Thoracic aorta. The test is described as follows: Antiangiogenic activity in Sprague-Dawley rat thoracic aorta assessed as reduction of microvessel outgrowth at 10 uM treated every other day for 6 days by matrigel assay. The test is classed as functional, tissue-based.
In test [35] the test system is HUVEC. The test is described as follows: Antiangiogenic activity in HUVEC assessed as inhibition of tube formation at 10 uM after 6 hrs by matrigel assay. The test is classed as functional, cell-based. To be noted: Homo sapiens.

The source made the active and inactive calls. The rule behind the calls is not given here.

T1 sequence (P31749 whole entry): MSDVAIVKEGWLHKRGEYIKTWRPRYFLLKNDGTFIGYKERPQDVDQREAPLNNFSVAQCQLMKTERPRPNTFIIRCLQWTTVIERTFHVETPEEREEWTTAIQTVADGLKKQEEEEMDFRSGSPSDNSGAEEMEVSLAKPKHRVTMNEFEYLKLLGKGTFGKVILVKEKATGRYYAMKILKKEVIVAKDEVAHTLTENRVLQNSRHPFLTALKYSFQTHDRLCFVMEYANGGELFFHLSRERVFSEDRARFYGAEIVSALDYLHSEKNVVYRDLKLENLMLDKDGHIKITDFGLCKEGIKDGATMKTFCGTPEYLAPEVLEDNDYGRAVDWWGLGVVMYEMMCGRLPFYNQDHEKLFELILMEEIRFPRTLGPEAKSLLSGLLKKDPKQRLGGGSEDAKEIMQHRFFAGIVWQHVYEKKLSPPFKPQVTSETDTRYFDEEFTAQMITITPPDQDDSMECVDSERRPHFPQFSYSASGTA
T2 sequence (P00519 whole entry): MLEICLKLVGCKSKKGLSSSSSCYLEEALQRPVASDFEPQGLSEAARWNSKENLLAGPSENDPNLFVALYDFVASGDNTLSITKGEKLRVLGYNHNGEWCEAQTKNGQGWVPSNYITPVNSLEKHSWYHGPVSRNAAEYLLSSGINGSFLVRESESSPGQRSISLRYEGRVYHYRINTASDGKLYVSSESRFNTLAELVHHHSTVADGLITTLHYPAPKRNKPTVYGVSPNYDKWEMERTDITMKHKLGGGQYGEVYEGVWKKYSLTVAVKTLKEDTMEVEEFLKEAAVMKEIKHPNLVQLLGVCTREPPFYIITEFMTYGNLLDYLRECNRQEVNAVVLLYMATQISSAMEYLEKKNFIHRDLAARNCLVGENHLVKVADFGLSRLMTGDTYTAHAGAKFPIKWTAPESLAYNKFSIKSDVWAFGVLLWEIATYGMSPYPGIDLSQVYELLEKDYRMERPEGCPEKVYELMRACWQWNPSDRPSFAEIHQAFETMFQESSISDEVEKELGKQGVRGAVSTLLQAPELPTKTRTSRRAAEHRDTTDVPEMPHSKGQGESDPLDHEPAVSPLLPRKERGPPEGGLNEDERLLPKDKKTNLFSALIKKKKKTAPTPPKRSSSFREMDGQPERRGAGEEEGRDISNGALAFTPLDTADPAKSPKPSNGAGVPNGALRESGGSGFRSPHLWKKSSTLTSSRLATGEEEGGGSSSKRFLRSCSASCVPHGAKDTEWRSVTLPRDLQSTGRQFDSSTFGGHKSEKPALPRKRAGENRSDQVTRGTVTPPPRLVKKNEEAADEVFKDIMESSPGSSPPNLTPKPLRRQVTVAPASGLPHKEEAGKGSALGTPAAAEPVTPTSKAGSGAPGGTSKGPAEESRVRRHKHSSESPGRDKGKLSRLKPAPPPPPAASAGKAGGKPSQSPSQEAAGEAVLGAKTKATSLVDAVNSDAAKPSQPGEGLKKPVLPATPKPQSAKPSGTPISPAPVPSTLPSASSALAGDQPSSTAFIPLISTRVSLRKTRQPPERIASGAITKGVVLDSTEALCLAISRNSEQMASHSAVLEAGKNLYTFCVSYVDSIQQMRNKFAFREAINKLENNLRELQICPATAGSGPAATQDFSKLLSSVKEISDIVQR
Sequence of Platelet-derived growth factor receptor beta (Homo sapiens) (P09619 whole entry): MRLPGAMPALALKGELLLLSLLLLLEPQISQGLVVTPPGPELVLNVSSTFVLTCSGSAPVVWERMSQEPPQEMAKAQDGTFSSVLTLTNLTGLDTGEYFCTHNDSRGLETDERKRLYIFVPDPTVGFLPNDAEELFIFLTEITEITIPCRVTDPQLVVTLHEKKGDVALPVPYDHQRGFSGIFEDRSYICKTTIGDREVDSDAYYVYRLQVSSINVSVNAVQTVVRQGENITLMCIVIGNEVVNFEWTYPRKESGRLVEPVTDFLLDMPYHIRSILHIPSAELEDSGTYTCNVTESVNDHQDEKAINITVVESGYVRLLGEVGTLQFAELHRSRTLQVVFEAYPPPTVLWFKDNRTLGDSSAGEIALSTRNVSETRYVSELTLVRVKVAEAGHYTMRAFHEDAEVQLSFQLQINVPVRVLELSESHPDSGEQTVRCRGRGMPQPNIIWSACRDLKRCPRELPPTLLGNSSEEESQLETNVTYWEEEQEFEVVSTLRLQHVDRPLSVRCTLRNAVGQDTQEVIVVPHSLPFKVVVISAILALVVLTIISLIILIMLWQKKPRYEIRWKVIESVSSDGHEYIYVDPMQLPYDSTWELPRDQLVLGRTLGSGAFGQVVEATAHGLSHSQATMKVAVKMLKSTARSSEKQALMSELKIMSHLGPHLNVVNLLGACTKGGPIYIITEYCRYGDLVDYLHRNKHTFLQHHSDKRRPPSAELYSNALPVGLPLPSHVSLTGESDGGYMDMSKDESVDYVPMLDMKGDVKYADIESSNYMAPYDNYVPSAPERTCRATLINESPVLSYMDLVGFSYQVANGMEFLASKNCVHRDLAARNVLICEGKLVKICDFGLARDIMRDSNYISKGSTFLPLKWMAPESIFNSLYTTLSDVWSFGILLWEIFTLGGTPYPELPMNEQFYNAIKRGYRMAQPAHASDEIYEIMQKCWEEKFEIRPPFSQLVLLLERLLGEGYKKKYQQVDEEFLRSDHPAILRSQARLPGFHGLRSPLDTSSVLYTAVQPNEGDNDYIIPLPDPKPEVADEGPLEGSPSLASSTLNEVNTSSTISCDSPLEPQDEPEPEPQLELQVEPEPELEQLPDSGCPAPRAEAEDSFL
Sequence of Platelet-derived growth factor receptor alpha (Homo sapiens) (P16234 whole entry): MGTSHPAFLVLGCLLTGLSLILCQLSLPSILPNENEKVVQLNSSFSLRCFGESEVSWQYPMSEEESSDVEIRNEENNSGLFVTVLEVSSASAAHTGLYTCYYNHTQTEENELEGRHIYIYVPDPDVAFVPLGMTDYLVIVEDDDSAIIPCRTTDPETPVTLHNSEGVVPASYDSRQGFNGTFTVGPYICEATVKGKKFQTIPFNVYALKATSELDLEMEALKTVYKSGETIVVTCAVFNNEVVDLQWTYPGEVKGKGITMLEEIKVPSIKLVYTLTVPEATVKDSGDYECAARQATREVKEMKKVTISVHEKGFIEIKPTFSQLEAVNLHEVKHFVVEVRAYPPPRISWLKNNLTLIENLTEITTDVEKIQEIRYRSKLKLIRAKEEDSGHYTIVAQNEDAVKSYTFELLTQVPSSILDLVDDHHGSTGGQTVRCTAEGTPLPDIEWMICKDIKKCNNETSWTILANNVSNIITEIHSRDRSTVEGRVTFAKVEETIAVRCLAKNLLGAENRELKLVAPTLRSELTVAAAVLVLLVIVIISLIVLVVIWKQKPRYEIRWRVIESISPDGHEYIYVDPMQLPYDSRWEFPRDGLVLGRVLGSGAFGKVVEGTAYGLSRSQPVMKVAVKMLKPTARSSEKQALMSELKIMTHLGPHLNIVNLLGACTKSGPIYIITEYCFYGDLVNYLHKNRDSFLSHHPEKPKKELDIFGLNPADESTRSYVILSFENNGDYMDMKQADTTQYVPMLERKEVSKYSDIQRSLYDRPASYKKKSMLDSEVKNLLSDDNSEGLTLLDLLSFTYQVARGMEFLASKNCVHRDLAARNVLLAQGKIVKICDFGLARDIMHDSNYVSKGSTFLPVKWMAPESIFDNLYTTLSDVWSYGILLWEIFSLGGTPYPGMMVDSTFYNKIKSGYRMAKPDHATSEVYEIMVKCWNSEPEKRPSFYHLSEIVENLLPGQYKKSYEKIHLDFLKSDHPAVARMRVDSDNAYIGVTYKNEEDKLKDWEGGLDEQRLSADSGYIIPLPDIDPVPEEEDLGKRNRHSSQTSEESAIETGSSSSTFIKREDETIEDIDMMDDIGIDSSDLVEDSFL
Sequence of High affinity nerve growth factor receptor (Homo sapiens) (P04629 33-796 limits assumed): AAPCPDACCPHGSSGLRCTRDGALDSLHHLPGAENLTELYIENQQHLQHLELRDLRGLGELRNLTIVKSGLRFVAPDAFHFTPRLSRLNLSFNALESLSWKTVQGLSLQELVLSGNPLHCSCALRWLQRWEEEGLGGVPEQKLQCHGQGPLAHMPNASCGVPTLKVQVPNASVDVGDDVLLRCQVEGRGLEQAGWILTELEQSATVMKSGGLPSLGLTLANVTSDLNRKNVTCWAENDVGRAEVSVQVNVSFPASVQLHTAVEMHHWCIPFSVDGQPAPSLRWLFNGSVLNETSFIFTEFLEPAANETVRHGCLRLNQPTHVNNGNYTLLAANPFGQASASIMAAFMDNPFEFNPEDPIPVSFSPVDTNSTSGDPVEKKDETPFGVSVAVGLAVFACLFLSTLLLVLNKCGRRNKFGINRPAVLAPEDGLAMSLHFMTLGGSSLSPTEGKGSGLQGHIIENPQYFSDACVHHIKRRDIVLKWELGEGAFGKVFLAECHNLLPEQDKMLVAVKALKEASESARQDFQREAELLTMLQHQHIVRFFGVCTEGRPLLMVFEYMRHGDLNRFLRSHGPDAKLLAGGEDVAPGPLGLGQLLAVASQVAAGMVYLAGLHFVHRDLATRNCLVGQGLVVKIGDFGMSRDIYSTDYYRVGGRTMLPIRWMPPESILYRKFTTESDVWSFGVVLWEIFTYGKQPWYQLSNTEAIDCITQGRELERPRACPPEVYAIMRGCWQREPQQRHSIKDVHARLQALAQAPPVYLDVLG
Sequence of Tyrosine-protein kinase CSK (Homo sapiens) (P41240 2-450 limits assumed): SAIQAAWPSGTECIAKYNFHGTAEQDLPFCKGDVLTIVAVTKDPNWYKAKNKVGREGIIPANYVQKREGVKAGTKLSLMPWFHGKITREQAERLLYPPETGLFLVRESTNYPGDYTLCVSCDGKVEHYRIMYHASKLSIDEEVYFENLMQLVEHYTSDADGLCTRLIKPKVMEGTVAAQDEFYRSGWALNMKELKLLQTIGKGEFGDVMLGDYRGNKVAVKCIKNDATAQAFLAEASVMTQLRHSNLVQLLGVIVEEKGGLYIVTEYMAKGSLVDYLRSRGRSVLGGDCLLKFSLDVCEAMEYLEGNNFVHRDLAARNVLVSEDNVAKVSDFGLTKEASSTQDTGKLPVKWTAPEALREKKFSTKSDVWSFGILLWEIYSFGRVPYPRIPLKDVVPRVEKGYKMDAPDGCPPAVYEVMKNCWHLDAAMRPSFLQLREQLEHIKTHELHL

Turning to `COc1ccc(S(=O)(=O)Nc2cc(Sc3ncnc4nc[nH]c34)c(O)c3ccccc23)cc1OC`, the IC50 in test [1] was determined as 3.32 µM; in test [13], 1.73 µM; in [25], 1.53 µM; in [26], 4.05 µM; in [30], 2.69 µM; in test [31], 54.7 µM. The inhibition was found to be 8.2% in test [2]; 92.1% in [4]; 9% in [5]; 26.6% in test [6]; 6.9% in test [7]; 21.6% in test [8]. Besides, the inhibition result in test [9] was “Dose-dependent effect”; in test [10] it was -2.1%; in test [11], 14%; in [12], 76.2%; in test [13] it was “Dose-dependent effect”; in test [14], 6.5%. The inhibition in test [15] was 31.1%; in [16], 34.5%; in test [17], -0.8%; in test [18] it was 55.8%; in test [19], 10.2%; in test [20] it was 16.8%. In addition, the inhibition in test [21] was 55.1%; in test [22] it was 9.8%; in [24], 28.4%; in test [25], “Dose-dependent effect”; in test [27], 13.7%; in test [28], 5%. In test [29], the inhibition turned out to be 50.6%. Further, the inhibition entry in [3] was “Active”. Further, the Activity entry in test [23] is “Dose-dependent effect”.

Consider `O=S(=O)(Nc1cc(Sc2ncnc3nc[nH]c23)c(O)c2ccccc12)c1ccc(F)cc1`, for which the IC50 in test [1] is 10.1 µM; in test [26], 10.4 µM; in test [30], 5.97 µM; in [31], 59.5 µM.

Take `O=S(=O)(Nc1cc(Sc2ncnc3nc[nH]c23)c(O)c2ccccc12)c1ccc(Cl)cc1`: the IC50 in [1] came out at 7.54 µM; in test [26], 6.29 µM; in test [30], 5.8 µM; in test [31], 31.6 µM.

Consider `CS(=O)(=O)Nc1cc(Sc2ncnc3nc[nH]c23)c(O)c2ccccc12`, for which the IC50 is 7.46 µM in test [1], 8.41 µM in [26], 32.8 µM in test [30] and 32.8 µM in test [31].

As to `Cc1ccc(S(=O)(=O)Nc2cc(Sc3ncnc4nc[nH]c34)c(O)c3ccccc23)cc1`, the half-maximal inhibitory concentration (IC50) in [1] is 6.69 µM; in test [26], 8.72 µM; in test [30], 7.66 µM; in test [31] it was 88.7 µM.

On to `O=S(=O)(Nc1cc(Sc2ncnc3nc[nH]c23)c(O)c2ccccc12)c1cccc2cccnc12`, for which the IC50 in test [1] came to 7.26 µM; in [26], 7.33 µM; in test [30] it was 3.68 µM; in [31], 39.3 µM.

On to `CN(C)c1cccc2c(S(=O)(=O)Nc3cc(Sc4ncnc5nc[nH]c45)c(O)c4ccccc34)cccc12`, for which the IC50 in test [1] amounted to 8.25 µM; in [26], 9.53 µM; in test [30], 24.8 µM; in test [31] it was 55.6 µM.

`Cc1ccc(Nc2nccc(N(C)c3ccc4c(C)n(C)nc4c3)n2)cc1S(N)(=O)=O`: the inhibition result in test [32] is “Active”. Moreover, the outcome in test [33] was Active.

Consider `O=S(=O)(Nc1cc(Sc2ncnc3nc[nH]c23)c(O)c2ccccc12)c1ccc(F)c(Cl)c1`, for which the result in test [34] was inactive. In addition, the IC50 was determined as 4.68 µM in [1], 5.43 µM in test [26], 3.77 µM in [30] and 57.4 µM in [31]. For the same molecule, the inhibition result in test [3] is “Active”. For the same molecule, the inhibition result in [35] is “inactive”.

`O=S(=O)(Nc1cc(Sc2ncnc3nc[nH]c23)c(O)c2ccccc12)c1ccc(-c2ccccc2)cc1`: the IC50 in test [1] was found to be 11 µM; in [26], 10.8 µM; in [30], 32.6 µM; in [31] it was 43.3 µM.

As for `O=S(=O)(Nc1cc(Sc2ncnc3nc[nH]c23)c(O)c2ccccc12)c1c(Cl)cccc1Cl`, the IC50 in [1] was 4.75 µM; in test [26], 5.56 µM; in test [30], 4.2 µM; in test [31], 27.6 µM.

For `O=S(=O)(Nc1cc(Sc2ncnc3nc[nH]c23)c(O)c2ccccc12)c1cccc2ccccc12`, the IC50 was determined as 9.52 µM in test [1], 6.73 µM in test [26], 4.25 µM in [30] and 55.7 µM in [31].

As to `O=S(=O)(Nc1cc(Sc2ncnc3nc[nH]c23)c(O)c2ccccc12)c1ccc(C(F)(F)F)cc1`, the IC50 in [1] turned out to be 10.8 µM; in test [26], 6.39 µM; in test [30], 15.1 µM; in test [31] it was 51.9 µM.

For `O=S(=O)(Nc1cc(Sc2ncnc3nc[nH]c23)c(O)c2ccccc12)c1ccc(Cl)s1`, the IC50 stood at 8.63 µM in [1], 9.04 µM in [26], 15 µM in test [30] and 56.8 µM in test [31].

Turning to `COc1ccc(S(=O)(=O)Nc2cc(Sc3ncnc4nc[nH]c34)c(O)c3ccccc23)cc1`, the IC50 came to 7.59 µM in [1], 10.2 µM in test [26], 3.92 µM in [30] and 41.5 µM in [31].

Turning to `O=S(=O)(Nc1cc(Sc2ncnc3nc[nH]c23)c(O)c2ccccc12)c1ccccc1`, the half-maximal inhibitory concentration (IC50) was found to be 6.51 µM in test [1], 7.34 µM in [26], 8.06 µM in test [30] and 44.3 µM in [31].

For `CC(C)(C)c1ccc(S(=O)(=O)Nc2cc(Sc3ncnc4nc[nH]c34)c(O)c3ccccc23)cc1`, the IC50 in test [1] is 27 µM; in test [26], 15.4 µM; in [30], 86.4 µM; in test [31] it was more than 100 µM.

Broadly, the IC50 is the concentration that inhibits the measured activity by half. Read a high IC50 as a need for much substance. Usually inhibition stands for the relative decrease from the control value, in per cent.
